Assay [1] has as its system H460 (NRF2 pathway mutant cell line with high AKR1C3 expression). The experiment in a line: In vitro cell proliferation assay (CellTiter-Glo), H460. Conditions: Homo sapiens, NCI-H460, 72 h; H460 cells, 3 days, CellTiter-Glo, top concentration 10 μM; read-out: H460 Qualified absolute AC50. The class given is cell-based. A digest of the protocol:
(§1)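 Luminescent CellTiter-Glo readout after 3-day compound exposure at 37 °C; 8-point 1:5 series, top 10 μM final. Seeding: 800 cells/well for H460, 2000 cells/well for Hara, RPMI-1640 plus 10% FBS. AC50 and percentage activity derived after normalizing to DMSO (1%) and MG132 (30 μM) controls.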
In general terms: In ATP-based viability assays light output follows the ATP content of the culture.

For assay [2], the target named is T1, Human KARS (Homo sapiens, UniProt Q15046).
T1 construct: Human KARS protein (residues 70-584) was expressed and purified; made in house
Briefly: KARS AMP Transcreener FP assay. In kind it is biochemical. The following applies: 50 nM human KARS, 20 μM ATP, 50 μM L-Lysine, 1 μM tRNA, 2 h at RT; read-out: Human KARS Transcreener AMP assay Qualified absolute AC50. From the text:
KARS AMP Transcreener FP Assay to Measure Inhibition of KARS Enzymatic Activity
Lysine-tRNA synthetase (KARS) is an enzyme that catalyzes the reaction of ATP, L-lysine, and tRNA(Lys) to form AMP, diphosphate, and L-lysyl-tRNA(Lys).
The Transceener® AMP/GMP (BellBrook Labs, Madison, WI, USA) is a far red, competitive fluorescence polarization (FP) immunoassay based on the detection of AMP, which is one of the products of aminoacylation of tRNA. In this assay, a fluorescently labeled AMP (AMP Alexa Fluor 633) is used as the tracer that can be recognized by a specific antibody. In the absence of AMP, all the tracer molecules are bound to the antibodies leading to large polarization. The AMP product generated by the enzyme reaction will compete with the tracer for binding to the antibody which leads to a decrease in the polarization. As such, the enzyme activity is inversely proportional to FP values.
Human KARS protein (residues 70-584) was expressed and purified using a similar protocol to what is described in literature (Crystal structure of tetrameric form of human lysyl-tRNA synthetase: Implications for multisynthetase complex formation Guo, M., Ignatov, M., Musier-Forsyth, K., Schimmel, P., Yang, X. L. (2008) Proc. Natl. Acad. Sci. Usa 105: 2331-2336).
The KARS enzyme assay was performed in a final volume of 10 μL per well of Corning Costar 384 well plate, flat bottom, black non-treated plate. The final assay concentration was 20 mM HEPES pH 7.5, 1 mM DTT, 50 nM human KARS, 20 μM ATP, 50 μM L-Lysine, 1 μM tRNA and 8 mM MgCl2. Compounds were serial diluted 1:3 in DMSO in a master plate to generate a 10 concentration points dose response with maximum concentration of 10 mM. 50 nL from compound master plate were spotted in each well of a 384 black plate (Corning 3573), and 5 μL of enzyme mixture containing 100 nM KARS diluted in assay buffer (20 mM HEPES pH 7.5 and 1 mM OTT) were added. The reaction was started by adding 5 μL of the substrate mixture containing 40 μM ATP (final 20 μM ATP), 100 μM L-Lysine (final 50 μM), 2 μM tRNA (final 1 μM), 16 mM MgCl2 (final 8 mM MgCl2) diluted in assay buffer (20 mM HEPES pH 7.5 and 1 mM OTT). The mixtures were mixed and incubated for 2 h at RT before the termination of the reaction.
Transcreener® stop and detection buffers were prepared (1× stop buffer [final: 0.5×], 2 nM Tracer [final: 1 nM] and 5 μg/ml anti-AMP antibody [final: 2.5 μg/ml] in deionized water) and 10 μL of the stop and detection mix were added to the reaction wells, mixed for a minute and centrifuged at 1000 rpm for 10 seconds. The plates were read after incubating at RT for 30-60 min using Infinite® M1000 with the following settings: Excitation wavelength: 635 nm; Emission wavelength: 680 nm. FP values of DMSO controls were used to normalize the data and calculate IC50s of compounds using the Helios Software suite.

Assay [3] has as its system Hara (NRF2 pathway wild type cell line with low AKR1C3 expression). Briefly: In vitro cell proliferation assay (CellTiter-Glo), Hara. The class given is cell-based. Conditions: 72 h; Hara cells, 3 days, CellTiter-Glo, top concentration 10 μM; read-out: HARA Qualified absolute AC50. Put shortly:
as §1

Our source for the AC50 values is patent publication US11970497B2, “Tricyclic AKR1C3 dependent KARS inhibitors” (Novartis AG, priority 2019, dated 2024).

As a reminder, the AC50 is the midpoint of the concentration-response curve, whichever way the signal moves.

T1 sequence (Q15046 70-584): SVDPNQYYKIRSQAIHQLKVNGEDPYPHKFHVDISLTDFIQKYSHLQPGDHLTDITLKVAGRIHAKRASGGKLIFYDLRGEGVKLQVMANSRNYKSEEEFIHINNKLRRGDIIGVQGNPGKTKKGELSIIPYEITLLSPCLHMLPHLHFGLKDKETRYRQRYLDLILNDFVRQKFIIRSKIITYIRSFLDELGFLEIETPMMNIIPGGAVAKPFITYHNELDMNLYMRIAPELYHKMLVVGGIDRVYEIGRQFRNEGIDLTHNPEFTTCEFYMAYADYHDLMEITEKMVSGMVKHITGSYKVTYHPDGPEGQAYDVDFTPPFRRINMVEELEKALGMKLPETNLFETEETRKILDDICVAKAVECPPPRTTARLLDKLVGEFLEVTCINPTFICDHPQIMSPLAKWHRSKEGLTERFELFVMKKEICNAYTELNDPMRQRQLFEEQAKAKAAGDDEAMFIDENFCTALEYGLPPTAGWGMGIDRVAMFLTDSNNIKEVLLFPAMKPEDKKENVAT

For `CN1c2ccc(F)cc2C(=O)CC12CCN(C(=O)NCc1ccc(F)cc1)CC2` [Example 9, 6′-fluoro-N-(4-fluorobenzyl)-1′-methyl-4′-oxo-3′,4′-dihydro-1′H-spiro[piperidine-4,2′-quinoline]-1-carboxamide], the concentration at half-maximal activity (AC50) in assay [1] is 0.017 µM; in assay [2], more than 10 µM; in assay [3], more than 10 µM.

Take `CN1c2ccc(F)cc2C(O)CC12CCN(C(=O)NCc1ccc(F)c(NCCO)c1)CC2` (stereo not drawn) [Example 165, 6′-fluoro-N-(4-fluoro-3-((2-hydroxyethyl)amino)benzyl)-4′-hydroxy-1′-methyl-3′,4′-dihydro-1′H-spiro[piperidine-4,2′-quinoline]-1-carboxamide]: the half-maximal activity concentration (AC50) turned out to be 0.049 µM in assay [1], 0.199 µM in assay [2] and 0.023 µM in assay [3].
